Measurements as given in EP0025288A1, “Derivatives of monic acid, processes for their preparation, compositions containing them and their preparation” (priority 1979, dated 1981).
Values after ≈ are worked out from the molar mass of the structure shown.

How the values were obtained:
[1] = system: S typhimurium S18; assay: MIC, veterinary bacteria; format: cell-based; settings: veterinary bacteria (Table 2), read-out: MIC
[2] = system: E coli E1; assay: MIC, veterinary bacteria; format: cell-based; settings: veterinary bacteria (Table 2), read-out: MIC
[3] = system: M. suipneumoniae ATCC 25095; assay: MIC, anti-mycoplasmal, Friis broth solidified with 0.9% agarose; format: cell-based; settings: Mesomycoplasma hyopneumoniae, ATCC25095, 144 h, inoculum 10^3 to 10^5 C.F.U., 6 days incubation at 37°C, read-out: in vitro MIC
[4] = system: M. hyosynoviae ATCC 25591; assay: as above; format: cell-based; settings: 144 h, inoculum 10^3 to 10^5 C.F.U., 6 days incubation at 37°C, read-out: in vitro MIC
[5] = system: M. suipneumoniae TAM 6N; assay: as above; format: cell-based; settings: Mesomycoplasma hyopneumoniae, TAM6N, 144 h, inoculum 10^3 to 10^5 C.F.U., 6 days incubation at 37°C, read-out: in vitro MIC
[6] = system: M. bovigenitalium ATCC 14173; assay: as above; format: cell-based; settings: 144 h, inoculum 10^3 to 10^5 C.F.U., 6 days incubation at 37°C, read-out: in vitro MIC
[7] = system: M. suipneumoniae PW/C/210; assay: as above; format: cell-based; settings: Mesomycoplasma hyopneumoniae, 144 h, inoculum 10^3 to 10^5 C.F.U., 6 days incubation at 37°C, read-out: in vitro MIC
[8] = system: M. hyorhinis ATCC 25021; assay: as above; format: cell-based; settings: Mesomycoplasma hyorhinis, ATCC25021, 144 h, inoculum 10^3 to 10^5 C.F.U., 6 days incubation at 37°C, read-out: in vitro MIC
[9] = system: Staph aureus Oxford; assay: MIC, veterinary bacteria; format: cell-based; settings: Staphylococcus aureus, veterinary bacteria (Table 2), read-out: MIC
[10] = system: M. suipneumoniae HK(2); assay: MIC, anti-mycoplasmal, Friis broth solidified with 0.9% agarose; format: cell-based; settings: Mesomycoplasma hyopneumoniae, 144 h, inoculum 10^3 to 10^5 C.F.U., 6 days incubation at 37°C, read-out: in vitro MIC
[11] = system: M. suipneumoniae MS 16; assay: as above; format: cell-based; settings: Mesomycoplasma hyopneumoniae, MS16, 144 h, inoculum 10^3 to 10^5 C.F.U., 6 days incubation at 37°C, read-out: in vitro MIC
[12] = system: M. pneumoniae ATCC 15492; assay: as above; format: cell-based; settings: Mycoplasmoides pneumoniae, ATCC15492, 144 h, inoculum 10^3 to 10^5 C.F.U., 6 days incubation at 37°C, read-out: in vitro MIC
[13] = system: Corynebacterium pyogenes CY1; assay: MIC, veterinary bacteria; format: cell-based; settings: veterinary bacteria (Table 2), read-out: MIC
[14] = system: S dublin S7; assay: MIC, veterinary bacteria; format: cell-based; settings: veterinary bacteria (Table 2), read-out: MIC
[15] = system: M. suipneumoniae NB12; assay: MIC, anti-mycoplasmal, Friis broth solidified with 0.9% agarose; format: cell-based; settings: Mesomycoplasma hyopneumoniae, 144 h, inoculum 10^3 to 10^5 C.F.U., 6 days incubation at 37°C, read-out: in vitro MIC
[16] = system: Past multocida PA1; assay: MIC, veterinary bacteria; format: cell-based; settings: veterinary bacteria (Table 2), read-out: MIC
[17] = system: M. dispar NCTC 10125; assay: MIC, anti-mycoplasmal, Friis broth solidified with 0.9% agarose; format: cell-based; settings: 144 h, inoculum 10^3 to 10^5 C.F.U., 6 days incubation at 37°C, read-out: in vitro MIC
[18] = system: Staph aureus B4 (pen resis); assay: MIC, veterinary bacteria; format: cell-based; settings: Staphylococcus aureus, veterinary bacteria (Table 2), read-out: MIC
[19] = system: M. suipneumoniae UCD 1; assay: MIC, anti-mycoplasmal, Friis broth solidified with 0.9% agarose; format: cell-based; settings: Mesomycoplasma hyopneumoniae, UCD1, 144 h, inoculum 10^3 to 10^5 C.F.U., 6 days incubation at 37°C, read-out: in vitro MIC
[20] = system: Staph aureus 152 (pen sens); assay: MIC, veterinary bacteria; format: cell-based; settings: Staphylococcus aureus, veterinary bacteria (Table 2), read-out: MIC
[21] = system: Past Haemolytica PA5; assay: MIC, veterinary bacteria; format: cell-based; settings: veterinary bacteria (Table 2), read-out: MIC
[22] = system: E coli NCTC 10418; assay: MIC, veterinary bacteria; format: cell-based; settings: veterinary bacteria (Table 2), read-out: MIC
[23] = system: Strep suis (group D) SPS11; assay: MIC, veterinary bacteria; format: cell-based; settings: veterinary bacteria (Table 2), read-out: MIC
[24] = system: Erysipelothrix rhusiopathiae NCTC 8163; assay: MIC, veterinary bacteria; format: cell-based; settings: NCTC8163, veterinary bacteria (Table 2), read-out: MIC
[25] = system: M. suipneumoniae NCTC 10110; assay: MIC, anti-mycoplasmal, Friis broth solidified with 0.9% agarose; format: cell-based; settings: Mesomycoplasma hyopneumoniae, NCTC10110, 144 h, inoculum 10^3 to 10^5 C.F.U., 6 days incubation at 37°C, read-out: in vitro MIC
[26] = system: Bord bronchiseptica BO8; assay: MIC, veterinary bacteria; format: cell-based; settings: veterinary bacteria (Table 2), read-out: MIC
[27] = system: M. suipneumoniae JF 435; assay: MIC, anti-mycoplasmal, Friis broth solidified with 0.9% agarose; format: cell-based; settings: Mesomycoplasma hyopneumoniae, JF435, 144 h, inoculum 10^3 to 10^5 C.F.U., 6 days incubation at 37°C, read-out: in vitro MIC
[28] = system: Strep uberis SPU1; assay: MIC, veterinary bacteria; format: cell-based; settings: veterinary bacteria (Table 2), read-out: MIC
[29] = system: M. suipneumoniae LABER; assay: MIC, anti-mycoplasmal, Friis broth solidified with 0.9% agarose; format: cell-based; settings: Mesomycoplasma hyopneumoniae, 144 h, inoculum 10^3 to 10^5 C.F.U., 6 days incubation at 37°C, read-out: in vitro MIC
[30] = system: M. suipneumoniae Str. 11; assay: as above; format: cell-based; settings: Mesomycoplasma hyopneumoniae, 144 h, inoculum 10^3 to 10^5 C.F.U., 6 days incubation at 37°C, read-out: in vitro MIC
[31] = system: Bord bronchisptica BO9; assay: MIC, veterinary bacteria; format: cell-based; settings: veterinary bacteria (Table 2), read-out: MIC
[32] = system: M. hyorhinis ATCC 23234; assay: MIC, anti-mycoplasmal, Friis broth solidified with 0.9% agarose; format: cell-based; settings: Mesomycoplasma hyorhinis, ATCC23234, 144 h, inoculum 10^3 to 10^5 C.F.U., 6 days incubation at 37°C, read-out: in vitro MIC
[33] = system: M. gallisepticum S6; assay: as above; format: cell-based; settings: Mycoplasmoides gallisepticum, 144 h, inoculum 10^3 to 10^5 C.F.U., 6 days incubation at 37°C, read-out: in vitro MIC
[34] = system: M. bovis NCTC 10131; assay: microbe, parasite or virus in culture; format: cell-based; settings: NCTC10131, 144 h, read-out: in vitro MIC
[35] = system: Strep dysgalaciae SPD1; assay: MIC, veterinary bacteria; format: cell-based; settings: veterinary bacteria (Table 2), read-out: MIC
[36] = system: Strep agalactiae SPA1; assay: MIC, veterinary bacteria; format: cell-based; settings: veterinary bacteria (Table 2), read-out: MIC
[37] = system: M. suipneumoniae J2206/183b; assay: MIC, anti-mycoplasmal, Friis broth solidified with 0.9% agarose; format: cell-based; settings: Mesomycoplasma hyopneumoniae, 144 h, inoculum 10^3 to 10^5 C.F.U., 6 days incubation at 37°C, read-out: in vitro MIC
[38] = system: Past multocida PA2; assay: MIC, veterinary bacteria; format: cell-based; settings: veterinary bacteria (Table 2), read-out: MIC
[39] = Serum binding by ultrafiltration; format: in vitro ADME, pig; settings: pig, serum, compounds at 8 mcg/ml, microbiological assay (B. subtilis ATCC 6633), read-out: % bound to pig serum (converted)
Method: Serum binding was assessed by ultrafiltration of procine serum containing compounds at 8 mcg/ml, and through an Amicon CF50A ultrafiltration cone. Separation of ultrafiltrate was achieved by centrifugation.

CC(=O)Nc1ccc(C(=O)CCCOC(=O)C=C(C)CC2OCC(CC3OC3C(C)C(C)O)C(O)C2O)cc1 (stereo not drawn) [Example 9, 4-(4-Acetamidophenyl)-4-oxobutyl monate A]
MIC [1]: > 80 µg/mL | MIC [2]: > 80 µg/mL | MIC [3]: 0.5 µg/mL (≈ 0.913 µM) | MIC [4]: 0.1 µg/mL (≈ 0.183 µM) | MIC [5]: 0.5 µg/mL (≈ 0.913 µM) | MIC [6]: 0.05 µg/mL (≈ 0.0913 µM) | MIC [7]: 0.25 µg/mL (≈ 0.457 µM) | MIC [8]: 0.25 µg/mL (≈ 0.457 µM) | MIC [9]: 0.625 µg/mL (≈ 1.14 µM) | MIC [10]: 0.5 µg/mL (≈ 0.913 µM) | MIC [11]: 0.25 µg/mL (≈ 0.457 µM) | MIC [12]: 0.5 µg/mL (≈ 0.913 µM) | MIC [13]: > 80 µg/mL | MIC [14]: > 80 µg/mL | MIC [15]: 0.5 µg/mL (≈ 0.913 µM) | MIC [16]: 2.5 µg/mL (≈ 4.57 µM) | MIC [17]: 0.1 µg/mL (≈ 0.183 µM) | MIC [18]: 1.25 µg/mL (≈ 2.28 µM) | MIC [19]: 0.5 µg/mL (≈ 0.913 µM) | MIC [20]: 0.625 µg/mL (≈ 1.14 µM) | MIC [21]: 20 µg/mL (≈ 36.5 µM) | MIC [22]: > 80 µg/mL | MIC [23]: 2.5 µg/mL (≈ 4.57 µM) | MIC [24]: 20 µg/mL (≈ 36.5 µM) | MIC [25]: 0.5 µg/mL (≈ 0.913 µM) | MIC [26]: > 80 µg/mL | MIC [27]: 0.5 µg/mL (≈ 0.913 µM) | MIC [28]: 0.156 µg/mL (≈ 0.285 µM) | MIC [29]: 0.25 µg/mL (≈ 0.457 µM) | MIC [30]: 0.25 µg/mL (≈ 0.457 µM) | MIC [31]: 20 µg/mL (≈ 36.5 µM) | MIC [32]: 0.25 µg/mL (≈ 0.457 µM) | MIC [33]: 2.5 µg/mL (≈ 4.57 µM) | MIC [34]: ≤ 0.01 µg/mL | MIC [35]: 0.156 µg/mL (≈ 0.285 µM) | MIC [36]: 0.625 µg/mL (≈ 1.14 µM) | MIC [37]: 0.5 µg/mL (≈ 0.913 µM) | MIC [38]: 0.625 µg/mL (≈ 1.14 µM) | fraction unbound [39]: 0.138
